Reference: ChEMBL document CHEMBL3885881, “DrugMatrix”
Where “and” joins values, the source holds several entries; their conditions need not be identical. Equal values may be shown once.

Species on record: Rattus norvegicus
Assay: DrugMatrix - Regimen: Daily Repeat
Type: toxicity, organism-based, Sprague-Dawley
Parameters: regimen Daily Repeat, gender Male, age 6-8 weeks
Conditions: in vivo, ip, route intraperitoneal, vehicle 100 % SALINE; for ABSOLUTE BASOPHIL / ABSOLUTE EOSINOPHIL / ABSOLUTE LYMPHOCYTE / ABSOLUTE MONOCYTE / ABSOLUTE SEGMENTED NEUTROPHIL / BASOPHIL / EOSINOPHIL / ERYTHROCYTE COUNT / HEMATOCRIT / HEMOGLOBIN / LEUKOCYTE COUNT / LYMPHOCYTE / MEAN CORPUSCULAR HEMOGLOBIN / MEAN CORPUSCULAR HEMOGLOBIN CONCENTRATION / MEAN CORPUSCULAR VOLUME / MONOCYTE / NEUTROPHIL / PLATELET COUNT: tissue Blood; for ALANINE AMINOTRANSFERASE / ALBUMIN / ALKALINE PHOSPHATASE / ASPARTATE AMINOTRANSFERASE / BLOOD UREA NITROGEN / CARBON DIOXIDE / CHOLESTEROL / CREATINE PHOSPHOKINASE / CREATININE / GLUCOSE / LACTATE DEHYDROGENASE / LIPASE / PHOSPHORUS / POTASSIUM / SODIUM / TOTAL BILIRUBIN / TOTAL PROTEIN / URIC ACID / CHLORIDE: tissue Plasma
[1] = 0 mg/kg, 120 h, dose level Control, time 5 day
[2] = 0 mg/kg, […], dose level Control, time 14 day
[3] = 0 mg/kg, […], dose level Control, time 28 day
[4] = 40 mg/kg, 120 h, dose level High, time 5 day

Sequence: GENTAMICIN
- ABSOLUTE BASOPHIL [1]: 32 cells/µL
- ABSOLUTE EOSINOPHIL [1]: 110 cells/µL
- ABSOLUTE LYMPHOCYTE [1]: 6630 cells/µL
- ABSOLUTE MONOCYTE [1]: 140 cells/µL
- ABSOLUTE SEGMENTED NEUTROPHIL [1]: 1170 cells/µL
- BASOPHIL [1]: 0.38% and 0.35%
- EOSINOPHIL [1]: 1.28% and 0.62%
- ERYTHROCYTE COUNT [1]: 7.45 x10E6/uL and 7.26 x10E6/uL
- HEMATOCRIT [1]: 45.74% and 47.97%
- HEMOGLOBIN [1]: 14.72 G/DL and 15.38 G/DL
- LEUKOCYTE COUNT [1]: 8.11 x10E3/uL and 8.68 x10E3/uL
- LYMPHOCYTE [1]: 81.3% and 86.77%
- MEAN CORPUSCULAR HEMOGLOBIN [1]: 19.76 pg and 21.18 pg
- MEAN CORPUSCULAR HEMOGLOBIN CONCENTRATION [1]: 32.16 G/DL and 32.05 G/DL
- MEAN CORPUSCULAR VOLUME [1]: 61.38 fL and 66.15 fL
- MONOCYTE [1]: 1.76% and 1.57%
- NEUTROPHIL [1]: 14.9% and 9.53%
- PLATELET COUNT [1]: 1322.4 x10E3/uL and 1786 x10E3/uL
- ALANINE AMINOTRANSFERASE [1]: 25.8 u/L and 20.5 u/L
- ALBUMIN [1]: 3.64 G/DL and 4.35 G/DL
- ALKALINE PHOSPHATASE [1]: 300 u/L
- ASPARTATE AMINOTRANSFERASE [1]: 81.4 u/L and 86.75 u/L
- BLOOD UREA NITROGEN [1]: 14.4 mg/dL and 17 mg/dL
- CARBON DIOXIDE [1]: 29 mmol/L
- CHOLESTEROL [1]: 69.2 mg/dL and 51.25 mg/dL
- CREATINE PHOSPHOKINASE [1]: 303.2 u/L and 384.75 u/L
- CREATININE [1]: 0.56 mg/dL and 0.47 mg/dL
- GLUCOSE [1]: 125.4 mg/dL and 128.75 mg/dL
- LACTATE DEHYDROGENASE [1]: 105.4 u/L and 145 u/L
- LIPASE [1]: 22.4 u/L and 13.25 u/L
- PHOSPHORUS [1]: 11.8 mg/dL
- POTASSIUM [1]: 5.52 MEQ/L and 6.58 MEQ/L
- SODIUM [1]: 147 MEQ/L and 151 MEQ/L
- TOTAL BILIRUBIN [1]: 0.2 mg/dL and 0.33 mg/dL
- TOTAL PROTEIN [1]: 6.1 G/DL and 6.53 G/DL
- URIC ACID [1]: 1.06 mg/dL and 1.95 mg/dL
- ABSOLUTE BASOPHIL [2]: 130 cells/µL
- ABSOLUTE EOSINOPHIL [2]: 140 cells/µL
- ABSOLUTE LYMPHOCYTE [2]: 13500 cells/µL
- ABSOLUTE MONOCYTE [2]: 400 cells/µL
- ABSOLUTE SEGMENTED NEUTROPHIL [2]: 2330 cells/µL
- HEMATOCRIT [2]: 45.98%
- HEMOGLOBIN [2]: 15.17 G/DL
- MEAN CORPUSCULAR VOLUME [2]: 59.4 fL
- NEUTROPHIL [2]: 14.14%
- ABSOLUTE BASOPHIL [3]: 91 cells/µL
- ABSOLUTE EOSINOPHIL [3]: 110 cells/µL
- ABSOLUTE LYMPHOCYTE [3]: 9910 cells/µL
- ABSOLUTE MONOCYTE [3]: 210 cells/µL
- ABSOLUTE SEGMENTED NEUTROPHIL [3]: 1560 cells/µL
- BASOPHIL [3]: 0.77%
- EOSINOPHIL [3]: 0.92%
- ERYTHROCYTE COUNT [3]: 8.21 x10E6/uL
- HEMATOCRIT [3]: 47.53%
- HEMOGLOBIN [3]: 15.65 G/DL
- LEUKOCYTE COUNT [3]: 11.91 x10E3/uL
- LYMPHOCYTE [3]: 83.34%
- MEAN CORPUSCULAR HEMOGLOBIN [3]: 19.07 pg
- MEAN CORPUSCULAR HEMOGLOBIN CONCENTRATION [3]: 32.93 G/DL
- MEAN CORPUSCULAR VOLUME [3]: 57.9 fL
- MONOCYTE [3]: 1.68%
- NEUTROPHIL [3]: 12.97%
- PLATELET COUNT [3]: 1323.8 x10E3/uL
- ALBUMIN [2]: 3.66 G/DL
- CARBON DIOXIDE [2]: 25 mmol/L
- CHLORIDE [2]: 107 MEQ/L
- CREATINE PHOSPHOKINASE [2]: 410.25 u/L
- SODIUM [2]: 149.2 MEQ/L
- URIC ACID [2]: 0.94 mg/dL
- ALANINE AMINOTRANSFERASE [3]: 30 u/L
- ALBUMIN [3]: 3.71 G/DL
- ALKALINE PHOSPHATASE [3]: 186.8 u/L
- ASPARTATE AMINOTRANSFERASE [3]: 78.2 u/L
- BLOOD UREA NITROGEN [3]: 14.2 mg/dL
- CHOLESTEROL [3]: 44.9 mg/dL
- CREATINE PHOSPHOKINASE [3]: 334.3 u/L
- CREATININE [3]: 0.6 mg/dL
- GLUCOSE [3]: 147.2 mg/dL
- LACTATE DEHYDROGENASE [3]: 123.1 u/L
- LIPASE [3]: 9.6 u/L
- PHOSPHORUS [3]: 10.01 mg/dL
- POTASSIUM [3]: 6.57 MEQ/L
- SODIUM [3]: 149.5 MEQ/L
- TOTAL BILIRUBIN [3]: 0.21 mg/dL
- TOTAL PROTEIN [3]: 6.66 G/DL
- URIC ACID [3]: 1.26 mg/dL
- ABSOLUTE BASOPHIL [4]: 80 cells/µL
- ABSOLUTE EOSINOPHIL [4]: 74 cells/µL
- ABSOLUTE LYMPHOCYTE [4]: 8100 cells/µL
- ABSOLUTE MONOCYTE [4]: 240 cells/µL
- ABSOLUTE SEGMENTED NEUTROPHIL [4]: 1450 cells/µL
- BASOPHIL [4]: 0.76% and 0.38%
- EOSINOPHIL [4]: 0.78% and 0.9%
- ERYTHROCYTE COUNT [4]: 6.83 x10E6/uL and 7.91 x10E6/uL
- HEMATOCRIT [4]: 41.68% and 49.95%
- HEMOGLOBIN [4]: 15.98 G/DL
- LEUKOCYTE COUNT [4]: 10.02 x10E3/uL and 8.78 x10E3/uL
- LYMPHOCYTE [4]: 80.04% and 84.55%
- MEAN CORPUSCULAR HEMOGLOBIN [4]: 20.3 pg and 20.2 pg
- MEAN CORPUSCULAR HEMOGLOBIN CONCENTRATION [4]: 33.3 G/DL and 31.98 G/DL
- MEAN CORPUSCULAR VOLUME [4]: 61 fL
- MONOCYTE [4]: 2.58% and 2.52%
- NEUTROPHIL [4]: 15.12% and 10.23%
- PLATELET COUNT [4]: 1275.4 x10E3/uL and 1549.75 x10E3/uL
- ALANINE AMINOTRANSFERASE [4]: 28.6 u/L and 25 u/L
- ALBUMIN [4]: 3.36 G/DL and 4.35 G/DL
- ALKALINE PHOSPHATASE [4]: 214.2 u/L and 307.5 u/L
- ASPARTATE AMINOTRANSFERASE [4]: 87.2 u/L and 90.25 u/L
- BLOOD UREA NITROGEN [4]: 15 mg/dL and 15.25 mg/dL
- CARBON DIOXIDE [4]: 25.75 mmol/L
- CHLORIDE [4]: 107.4 MEQ/L
- CHOLESTEROL [4]: 60.8 mg/dL and 65.25 mg/dL
- CREATINE PHOSPHOKINASE [4]: 313.5 u/L and 416.75 u/L
- CREATININE [4]: 0.44 mg/dL and 0.45 mg/dL
- GLUCOSE [4]: 128 mg/dL and 118.5 mg/dL
- LACTATE DEHYDROGENASE [4]: 133.8 u/L and 153 u/L
